In ChEMBL document CHEMBL1135585, “Mixed steroidal 1,2,4,5-tetraoxanes: antimalarial and antimycobacterial activity” (J Med Chem, 2002):

Columns and labels:
Plasmodium falciparum [1] = tested on: Plasmodium falciparum
Description: (§1) In vitro inhibitory activity against chloroquine-sensitive Plasmodium falciparum African D6

Plasmodium falciparum [2] = tested on: Plasmodium falciparum; remark: listed apart in the source
Description: (§2) In vitro inhibitory activity against chloroquine-resistant Plasmodium falciparum W2 Indochina

Plasmodium falciparum [3] = experiment: microbe, parasite or virus in culture
Description: as §1

Plasmodium falciparum [4] = experiment: microbe, parasite or virus in culture; remark: listed apart in the source
Description: as §2

| Structure (SMILES) | IC50 (Plasmodium falciparum [1]) [nM] | IC50 (Plasmodium falciparum [2]) [nM] | IC50 (Plasmodium falciparum [3]) [nM] | IC50 (Plasmodium falciparum [4]) [nM] |
| --- | --- | --- | --- | --- |
| CNC(=O)CCC(C)C1CC[C@H]2[C@@H]3[C@H](OC(C)=O)C[C@@H]4CC5(CC[C@]4(C)[C@H]3C[C@H](OC(C)=O)[C@]12C)OOC1(CCC(C)CC1)OO5 (stereo in doubt; 17) | 16.7 | 11.9 |  |  |
| COC(=O)CCC(C)C1CC[C@H]2[C@@H]3[C@H](OC(C)=O)C[C@@H]4CC5(CC[C@]4(C)[C@H]3C[C@H](OC(C)=O)[C@]12C)OOC1(CCCCC1C)OO5 (stereo partly drawn) |  |  | 27 | 15.6 |
| CC(=O)O[C@H]1C[C@H]2[C@@H]([C@H](OC(C)=O)C[C@@H]3CC4(CC[C@@]32C)OOC2(CCCCC2C)OO4)[C@@H]2CCC(C(C)CCC(=O)O)[C@@]12C (stereo partly drawn) |  |  | 67.6 | 37.5 |
| C[C@@H]1CC[C@H]2[C@@H](C)C(=O)O[C@@H]3O[C@@]4(C)CC[C@@H]1[C@]32OO4 [ARTEMISININ] |  |  | 8.4 | 7.3 |
| CCNC(=O)CCC(C)C1CC[C@H]2[C@@H]3[C@H](OC(C)=O)C[C@@H]4CC5(CC[C@]4(C)[C@H]3C[C@H](OC(C)=O)[C@]12C)OOC1(CCC(CC)CC1)OO5 (mixture of isomers; 22) |  |  | 19.8 | 9.56 |
| COC(=O)CCC(C)C1CC[C@H]2[C@@H]3[C@H](OC(C)=O)C[C@@H]4CC5(CC[C@]4(C)[C@H]3C[C@H](OC(C)=O)[C@]12C)OOC1(CCCCC1)OO5 (stereo partly drawn) |  |  | 21.5 | 17 |
| COC(=O)CCC(C)C1CC[C@H]2[C@@H]3[C@H](OC(C)=O)C[C@@H]4CC5(CC[C@]4(C)[C@H]3C[C@H](OC(C)=O)[C@]12C)OOC1(CCC(C(C)(C)C)CC1)OO5 (stereo in doubt; 3k) | 107 | 52.7 |  |  |
| CCCNC(=O)CCC(C)C1CC[C@H]2[C@@H]3[C@H](OC(C)=O)C[C@@H]4CC5(CC[C@]4(C)[C@H]3C[C@H](OC(C)=O)[C@]12C)OOC1(CCC(CC)CC1)OO5 (mixture of isomers; 27) | 90.2 | 123 |  |  |
| CCC1CCC2(CC1)OOC1(CC[C@@]3(C)[C@H](C[C@@H](OC(C)=O)[C@@H]4[C@@H]3C[C@H](OC(C)=O)[C@]3(C)C(C(C)CCC(=O)NC)CC[C@@H]43)C1)OO2 (mixture of isomers; 25) | 27.9 | 6.15 |  |  |
| CCCNC(=O)CCC(C)C1CC[C@H]2[C@@H]3[C@H](OC(C)=O)C[C@@H]4CC5(CC[C@]4(C)[C@H]3C[C@H](OC(C)=O)[C@]12C)OOC1(CCCCC1)OO5 (stereo partly drawn) |  |  | 14.8 | 6.8 |
| CC(=O)O[C@H]1C[C@H]2[C@@H]([C@H](OC(C)=O)C[C@@H]3CC4(CC[C@@]32C)OOC2(CCCCC2)OO4)[C@@H]2CCC(C(C)CCC(=O)O)[C@@]12C (stereo partly drawn) |  |  | 11.8 | 19.2 |
| CC(=O)O[C@H]1C[C@H]2[C@@H]([C@H](OC(C)=O)C[C@@H]3CC4(CC[C@@]32C)OOC2(CCCCC2)OO4)[C@@H]2CCC(C(C)CCC(N)=O)[C@@]12C (stereo partly drawn) |  |  | 11.8 | 4.74 |
| COC(=O)CCC(C)C1CC[C@H]2[C@@H]3[C@H](OC(C)=O)C[C@@H]4CC5(CC[C@]4(C)[C@H]3C[C@H](OC(C)=O)[C@]12C)OOC1(CCCC1)OO5 (stereo partly drawn) |  |  | 39.1 | 27.7 |
| CCC1CCC2(CC1)OOC1(CC[C@@]3(C)[C@H](C[C@@H](OC(C)=O)[C@@H]4[C@@H]3C[C@H](OC(C)=O)[C@]3(C)C(C(C)CCC(=O)O)CC[C@@H]43)C1)OO2 (stereo in doubt; 4i) |  |  | 5.76 | 7.26 |
| COC(=O)CCC(C)C1CC[C@H]2[C@@H]3[C@H](OC(C)=O)C[C@@H]4CC5(CC[C@]4(C)[C@H]3C[C@H](OC(C)=O)[C@]12C)OOC1(CCC(C(C)(C)C)CC1)OO5 (stereo in doubt; 3l) | 51.9 |  |  | 27.8 |
| CC(=O)O[C@H]1C[C@H]2[C@@H]([C@H](OC(C)=O)C[C@@H]3CC4(CC[C@@]32C)OOC2(CCC(C)CC2)OO4)[C@@H]2CCC(C(C)CCC(N)=O)[C@@]12C (stereo in doubt; 16) | 20 | 14.1 |  |  |
| COC(=O)CCC(C)C1CC[C@H]2[C@@H]3[C@H](OC(C)=O)C[C@@H]4CC5(CC[C@]4(C)[C@H]3C[C@H](OC(C)=O)[C@]12C)OOC1(OO5)C(C)CCCC1C (stereo partly drawn) |  |  | 31.2 | 357 |
| CCC1CCC2(CC1)OOC1(CC[C@@]3(C)[C@H](C[C@@H](OC(C)=O)[C@@H]4[C@@H]3C[C@H](OC(C)=O)[C@]3(C)C(C(C)CCC(=O)OC)CC[C@@H]43)C1)OO2 (single isomer, unassigned; 3i) | 6.73 | 15.5 |  |  |
| CCC1CCC2(CC1)OOC1(CC[C@@]3(C)[C@H](C[C@@H](OC(C)=O)[C@@H]4[C@@H]3C[C@H](OC(C)=O)[C@]3(C)C(C(C)CCC(N)=O)CC[C@@H]43)C1)OO2 (mixture of isomers; 20) | 8.4 | 10.7 |  |  |

| Structure (SMILES) | IC50 (Plasmodium falciparum [1]) [nM] | IC50 (Plasmodium falciparum [2]) [nM] | IC50 (Plasmodium falciparum [3]) [nM] | IC50 (Plasmodium falciparum [4]) [nM] |
| --- | --- | --- | --- | --- |
| CCCNC(=O)CCC(C)C1CC[C@H]2[C@@H]3[C@H](OC(C)=O)C[C@@H]4CC5(CC[C@]4(C)[C@H]3C[C@H](OC(C)=O)[C@]12C)OOC1(CCC(C)CC1)OO5 (stereo in doubt; 19) | 84.9 | 83 |  |  |
| CCCNC(=O)CCC(C)C1CC[C@H]2[C@@H]3[C@H](OC(C)=O)C[C@@H]4CC5(CC[C@]4(C)[C@H]3C[C@H](OC(C)=O)[C@]12C)OOC1(CCCCC1C)OO5 (stereo partly drawn) |  |  | 13.2 | 9.29 |
| COC(=O)CNC(=O)CCC(C)C1CC[C@H]2[C@@H]3[C@H](OC(C)=O)C[C@@H]4CC5(CC[C@]4(C)[C@H]3C[C@H](OC(C)=O)[C@]12C)OOC1(CCCCC1)OO5 (stereo partly drawn) |  |  | 22 | 10.8 |
| CCCNC(=O)CCC(C)C1CC[C@H]2[C@@H]3[C@H](OC(C)=O)C[C@@H]4CC5(CC[C@]4(C)[C@H]3C[C@H](OC(C)=O)[C@]12C)OOC1(CCC(CC)CC1)OO5 (mixture of isomers; 23) | 8.34 | 4.51 |  |  |
| OC(c1cc(C(F)(F)F)nc2c(C(F)(F)F)cccc12)C1CCCCN1 (stereo not drawn) [MEFLOQUINE] |  |  | 28.3 |  |
| CNC(=O)CCC(C)C1CC[C@H]2[C@@H]3[C@H](OC(C)=O)C[C@@H]4CC5(CC[C@]4(C)[C@H]3C[C@H](OC(C)=O)[C@]12C)OOC1(CCCCC1C)OO5 (stereo partly drawn) |  |  | 15.2 | 10 |
| CCNC(=O)CCC(C)C1CC[C@H]2[C@@H]3[C@H](OC(C)=O)C[C@@H]4CC5(CC[C@]4(C)[C@H]3C[C@H](OC(C)=O)[C@]12C)OOC1(CCC(C)CC1)OO5 (stereo in doubt; 18) | 15.6 | 9.93 |  |  |
| COC(=O)CCC(C)C1CC[C@H]2[C@@H]3[C@H](OC(C)=O)C[C@@H]4CC5(CC[C@]4(C)[C@H]3C[C@H](OC(C)=O)[C@]12C)OOC1(CC(C)CCC1C(C)C)OO5 (stereo partly drawn) |  |  | 154 | 73.2 |
| CCC1CCC2(CC1)OOC1(CC[C@@]3(C)[C@H](C[C@@H](OC(C)=O)[C@@H]4[C@@H]3C[C@H](OC(C)=O)[C@]3(C)C(C(C)CCC(=O)OC)CC[C@@H]43)C1)OO2 (single isomer, unassigned; 3j) | 17.7 |  |  | 28.3 |
| CCC1CCC2(CC1)OOC1(CC[C@@]3(C)[C@H](C[C@@H](OC(C)=O)[C@@H]4[C@@H]3C[C@H](OC(C)=O)[C@]3(C)C(C(C)CCC(N)=O)CC[C@@H]43)C1)OO2 (mixture of isomers; 24) | 31.1 |  |  | 12.5 |
| CCC1CCC2(CC1)OOC1(CC[C@@]3(C)[C@H](C[C@@H](OC(C)=O)[C@@H]4[C@@H]3C[C@H](OC(C)=O)[C@]3(C)C(C(C)CCC(=O)NC)CC[C@@H]43)C1)OO2 (mixture of isomers; 21) | 7.21 |  |  | 7.82 |
| CC(=O)O[C@H]1C[C@H]2[C@@H]([C@H](OC(C)=O)C[C@@H]3CC4(CC[C@@]32C)OOC2(CCC(C)CC2)OO4)[C@@H]2CCC(C(C)CCC(=O)O)[C@@]12C (stereo in doubt; 4h) | 31.1 | 17.7 |  |  |
| CCNC(=O)CCC(C)C1CC[C@H]2[C@@H]3[C@H](OC(C)=O)C[C@@H]4CC5(CC[C@]4(C)[C@H]3C[C@H](OC(C)=O)[C@]12C)OOC1(CCC(CC)CC1)OO5 (mixture of isomers; 26) | 23.1 | 18.1 |  |  |
| CCC1CCC2(CC1)OOC1(CC[C@@]3(C)[C@H](C[C@@H](OC(C)=O)[C@@H]4[C@@H]3C[C@H](OC(C)=O)[C@]3(C)C(C(C)CCC(=O)O)CC[C@@H]43)C1)OO2 (stereo in doubt; 4j) | 9.83 | 14.4 |  |  |
| COC(=O)CCC(C)C1CC[C@H]2[C@@H]3[C@H](OC(C)=O)C[C@@H]4CC5(CC[C@]4(C)[C@H]3C[C@H](OC(C)=O)[C@]12C)OOC1(CCC(C)CC1)OO5 (stereo in doubt; 3h) | 24.6 | 13.2 |  |  |
| CC(=O)O[C@H]1C[C@H]2[C@@H]([C@H](OC(C)=O)C[C@@H]3CC4(CC[C@@]32C)OOC2(CCCCC2C)OO4)[C@@H]2CCC(C(C)CCC(N)=O)[C@@]12C (stereo partly drawn) |  |  | 17.3 | 11.1 |
| COC(=O)CCC(C)C1CC[C@H]2[C@@H]3[C@H](OC(C)=O)C[C@@H]4CC5(CC[C@]4(C)[C@H]3C[C@H](OC(C)=O)[C@]12C)OOC1(CCCCCCC1)OO5 (stereo partly drawn) |  |  | 48.4 | 20 |
| CCNC(=O)CCC(C)C1CC[C@H]2[C@@H]3[C@H](OC(C)=O)C[C@@H]4CC5(CC[C@]4(C)[C@H]3C[C@H](OC(C)=O)[C@]12C)OOC1(CCCCC1C)OO5 (stereo partly drawn) |  |  | 12.7 | 6.97 |
